Laboratory results reported in ChEMBL document CHEMBL1151855, “Synthesis of novel 1-alkyl-8-substituted-3-(3-methoxypropyl) xanthines as putative A(2B) receptor antagonists” (Bioorg Med Chem, 2009).
pKi: −log10 of the molar value.

Key:
Adenosine receptor A2b = target: T1, Adenosine receptor A2b (Homo sapiens, UniProt P29275); test: Binding affinity to human adenosine A2b receptor expressed in HEK293 cells; type: cell-based
T1 sequence (P29275 whole entry): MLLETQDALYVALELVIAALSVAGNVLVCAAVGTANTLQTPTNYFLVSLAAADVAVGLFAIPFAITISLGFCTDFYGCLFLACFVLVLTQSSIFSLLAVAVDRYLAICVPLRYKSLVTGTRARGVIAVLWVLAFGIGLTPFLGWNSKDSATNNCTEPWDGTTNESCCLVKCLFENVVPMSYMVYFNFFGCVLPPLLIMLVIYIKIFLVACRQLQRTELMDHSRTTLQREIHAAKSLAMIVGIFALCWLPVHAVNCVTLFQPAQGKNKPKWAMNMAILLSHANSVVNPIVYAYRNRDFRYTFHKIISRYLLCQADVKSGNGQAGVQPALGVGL

Adenosine receptor A3 = target: T2, Adenosine receptor A3 (Homo sapiens, UniProt P0DMS8); test: Binding affinity to human adenosine A3 receptor expressed in human HeLa cells; type: cell-based
T2 sequence (P0DMS8 whole entry): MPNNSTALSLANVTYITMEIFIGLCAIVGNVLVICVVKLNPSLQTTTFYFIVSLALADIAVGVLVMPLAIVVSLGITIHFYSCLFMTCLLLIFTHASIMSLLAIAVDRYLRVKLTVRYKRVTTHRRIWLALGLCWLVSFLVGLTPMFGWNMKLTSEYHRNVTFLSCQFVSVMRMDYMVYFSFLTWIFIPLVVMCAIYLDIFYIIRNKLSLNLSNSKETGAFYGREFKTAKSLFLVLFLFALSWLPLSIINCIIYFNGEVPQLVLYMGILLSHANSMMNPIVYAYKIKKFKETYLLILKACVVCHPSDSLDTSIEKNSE

Adenosine receptor A1 = target: T3, Adenosine receptor A1 (Rattus norvegicus, UniProt P25099); test: Binding affinity to rat cortex adenosine A1 receptor
T3 sequence (P25099 whole entry): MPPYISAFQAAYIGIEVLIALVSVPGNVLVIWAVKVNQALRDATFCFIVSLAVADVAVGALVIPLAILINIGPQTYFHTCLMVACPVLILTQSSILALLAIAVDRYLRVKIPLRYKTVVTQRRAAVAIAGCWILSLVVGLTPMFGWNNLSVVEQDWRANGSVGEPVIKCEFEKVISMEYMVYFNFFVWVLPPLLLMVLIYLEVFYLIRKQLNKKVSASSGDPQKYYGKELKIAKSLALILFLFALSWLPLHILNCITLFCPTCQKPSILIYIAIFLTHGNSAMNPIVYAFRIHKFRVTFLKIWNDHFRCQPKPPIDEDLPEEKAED

Adenosine receptor A2a [1] = target: T4, Adenosine receptor A2a (Homo sapiens, UniProt P29274); test: Binding affinity to human adenosine A2a receptor expressed in human HeLa cells; type: cell-based
[2] = target: T5, Adenosine receptor A3 (Homo sapiens) (UniProt P0DMS8); test: Displacement of [3H]NECA from human adenosine A3 receptor expressed in human HeLa cells at 1 uM; type: cell-based
T5 sequence (whole entry): T2 sequence (P0DMS8 whole entry)

[3] = target: T6, Adenosine receptor A2b (Homo sapiens) (UniProt P29275); test: Displacement of [3H]DPCPX from human adenosine A2b receptor expressed in HEK293 cells at 1 uM; type: cell-based
T6 sequence (whole entry): T1 sequence (P29275 whole entry)

Adenosine receptor A2a [4] = target: T4, Adenosine receptor A2a; test: Displacement of [3H]ZM241385 from human adenosine A2a receptor expressed in human HeLa cells at 1 uM; type: cell-based
[5] = target: T7, Adenosine receptor A1 (Rattus norvegicus) (UniProt P25099); test: Displacement of [3H]DPCPX from rat cortex adenosine A1 receptor at 1 uM
T7 sequence (whole entry): T3 sequence (P25099 whole entry)

T4 sequence (P29274 whole entry): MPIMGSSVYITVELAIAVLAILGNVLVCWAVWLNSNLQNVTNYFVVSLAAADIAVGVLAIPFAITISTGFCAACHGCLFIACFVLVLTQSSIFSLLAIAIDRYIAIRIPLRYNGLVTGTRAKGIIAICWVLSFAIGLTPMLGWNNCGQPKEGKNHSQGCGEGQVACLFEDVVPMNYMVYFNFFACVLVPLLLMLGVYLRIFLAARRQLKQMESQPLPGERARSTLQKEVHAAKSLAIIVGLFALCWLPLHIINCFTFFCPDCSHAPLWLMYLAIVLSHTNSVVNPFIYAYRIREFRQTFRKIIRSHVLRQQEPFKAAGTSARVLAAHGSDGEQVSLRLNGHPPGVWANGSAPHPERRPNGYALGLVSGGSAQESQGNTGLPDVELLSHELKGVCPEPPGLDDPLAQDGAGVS

Compound | pKi (Adenosine receptor A2b) | pKi (Adenosine receptor A2a [1]) | Activity [3] [%] | Activity (Adenosine receptor A2a [4]) [%] | other results
CCn1c(=O)c2[nH]c(-c3ccc(OCC(=O)Nc4ccc(N(C)C)cc4)cc3)nc2n(CCCOC)c1=O | 6.76 | 5.75 | – | – | pKi (Adenosine receptor A3): 6.68; pKi (Adenosine receptor A1): 6.06
CCn1c(=O)c2[nH]c(-c3ccc(OCC(=O)Nc4ccc(Br)cc4)cc3)nc2n(CCCOC)c1=O | 8.54 | 7.01 | – | – | pKi (Adenosine receptor A3): 5.89; pKi (Adenosine receptor A1): 7.00
CCn1c(=O)c2[nH]c(-c3ccco3)nc2n(CCCOC)c1=O | 6.86 | 6.31 | – | – | –
CCn1c(=O)c2[nH]c(-c3ccc(OCC(=O)Nc4nc5ccccc5[nH]4)cc3)nc2n(CCCOC)c1=O | 7.03 | 6.69 | – | – | –
CCn1c(=O)c2[nH]c(-c3ccc(OCC(=O)Nc4ccc(O)cc4)cc3)nc2n(CCCOC)c1=O | 7.81 | 6.38 | – | – | pKi (Adenosine receptor A1): 6.76; Activity [2]: 65%
CCCn1c(=O)c2[nH]c(CCCc3ccccc3)nc2n(CCCOC)c1=O | – | – | 70 | 26 | –
CCn1c(=O)c2[nH]c(-c3ccc(OCC(=O)Nc4ccc(C#N)cc4)cc3)nc2n(CCCOC)c1=O | 8.04 | 6.95 | – | – | pKi (Adenosine receptor A3): 6.40; pKi (Adenosine receptor A1): 6.17
CCCn1c(=O)c2[nH]c(-c3ccccc3)nc2n(CCCOC)c1=O | 6.49 | 6.47 | – | – | –
CCn1c(=O)c2c(nc(-c3ccco3)n2C)n(CCCOC)c1=O | – | – | 1 | 14 | –
CCCn1c(=O)c2[nH]c(-c3ccc[nH]3)nc2n(CCCOC)c1=O | 6.83 | 6.40 | – | – | –
CCCn1c(=O)c2[nH]c(-c3ccc(-c4ccccc4)cc3)nc2n(CCCOC)c1=O | – | – | 66 | 14 | –
CCn1c(=O)c2[nH]c(-c3ccc(OCC(=O)Nc4ccccc4)cc3)nc2n(CCCOC)c1=O | 8.52 | 7.06 | – | – | pKi (Adenosine receptor A3): 5.60; pKi (Adenosine receptor A1): 7.44
CCn1c(=O)c2[nH]c(-c3ccc[nH]3)nc2n(CCCOC)c1=O | 7.07 | 6.68 | – | – | –
CCCn1c(=O)c2[nH]c(-c3cccs3)nc2n(CCCOC)c1=O | – | – | 77 | 25 | –
CCn1c(=O)c2[nH]c(-c3ccc(OCC(=O)N4CCc5ccccc5C4)cc3)nc2n(CCCOC)c1=O | 7.31 | 6.64 | – | – | pKi (Adenosine receptor A1): 7.00
CCOCCn1c(=O)c2[nH]c(-c3ccccc3)nc2n(CCCOC)c1=O | – | – | 21 | 51 | –
CCn1c(=O)c2[nH]c(-c3ccc(OCC(=O)Nc4ccccn4)cc3)nc2n(CCCOC)c1=O | 7.81 | 6.77 | – | – | Activity [5]: 2%; Activity [2]: 69%
CCSCCn1c(=O)c2[nH]c(Cc3ccco3)nc2n(CCCOC)c1=O | 5.70 | – | – | 1 | –
CCn1c(=O)c2[nH]c(Cc3ccco3)nc2n(CCCOC)c1=O | – | – | 17 | 11 | –

Compound | pKi (Adenosine receptor A2b) | pKi (Adenosine receptor A2a [1]) | Activity [3] [%] | Activity (Adenosine receptor A2a [4]) [%] | other results
CCn1c(=O)c2[nH]c(-c3ccc(-c4ccccc4)cc3)nc2n(CCCOC)c1=O | 7.15 | 6.28 | – | – | –
CCS(=O)(=O)CCn1c(=O)c2[nH]c(-c3ccccc3)nc2n(CCCOC)c1=O | – | – | 0 | 20 | –
CCSCCn1c(=O)c2[nH]c(-c3ccccc3)nc2n(CCCOC)c1=O | – | – | 41 | 8 | –
CC[S+]([O-])CCn1c(=O)c2[nH]c(-c3ccccc3)nc2n(CCCOC)c1=O (configuration not stated) | – | – | 11 | 18 | –
CCCn1c(=O)c2[nH]c(C3CCCC3)nc2n(CCCOC)c1=O | – | – | 62 | 84 | –
CCn1c(=O)c2[nH]c(-c3ccc(OCC(=O)Nc4ccon4)cc3)nc2n(CCCOC)c1=O | 7.68 | 6.67 | – | – | pKi (Adenosine receptor A3): 6.03; pKi (Adenosine receptor A1): 7.02
CCn1c(=O)c2[nH]c(-c3ccc(OCC(=O)Nc4ccc(F)cc4)cc3)nc2n(CCCOC)c1=O | 8.52 | 7.25 | – | – | pKi (Adenosine receptor A3): 6.02; pKi (Adenosine receptor A1): 7.68
CCS(=O)(=O)CCn1c(=O)c2[nH]c(Cc3ccco3)nc2n(CCCOC)c1=O | – | – | 15 | 6 | –
CCn1c(=O)c2[nH]c(-c3ccc(OCC(=O)Nc4cccnc4)cc3)nc2n(CCCOC)c1=O | 7.47 | 6.12 | – | – | pKi (Adenosine receptor A3): 7.02; pKi (Adenosine receptor A1): 6.79
CCn1c(=O)c2[nH]c(-c3ccc(OCC(=O)NC4CCCC4)cc3)nc2n(CCCOC)c1=O | 7.11 | 7.02 | – | – | –
CC[S+]([O-])CCn1c(=O)c2[nH]c(Cc3ccco3)nc2n(CCCOC)c1=O (configuration not stated) | – | – | 0 | 12 | –
CCSCCn1c(=O)c2[nH]c(-c3ccco3)nc2n(CCCOC)c1=O | 6.31 | 5.30 | – | – | –
CCn1c(=O)c2c(nc(-c3ccc(-c4ccccc4)cc3)n2C)n(CCCOC)c1=O | – | – | 6 | 5 | –
COCCCn1c(=O)n(CC(C)C)c(=O)c2[nH]c(-c3ccccc3)nc21 | – | – | 30 | 25 | –
CCn1c(=O)c2[nH]c(-c3ccccc3)nc2n(CCCOC)c1=O | – | – | 67 | 49 | –
CCCCCn1c(=O)c2[nH]c(-c3ccccc3)nc2n(CCCOC)c1=O | – | – | 49 | 0 | –
CCn1c(=O)c2[nH]c(-c3cccs3)nc2n(CCCOC)c1=O | 6.90 | 6.66 | – | – | –
CCn1c(=O)c2[nH]c(-c3ccc(OCC(=O)Nc4ccc(C(C)=O)cc4)cc3)nc2n(CCCOC)c1=O | 7.93 | 6.83 | – | – | pKi (Adenosine receptor A3): 6.15; Activity [5]: 68%
COCCCn1c(=O)n(CCOC)c(=O)c2[nH]c(-c3ccccc3)nc21 | – | – | 70 | 54 | –
